Reference: publication PMC10385824, “Antiproliferative and Tubulin-Destabilising Effects of 3-(Prop-1-en-2-yl)azetidin-2-Ones and Related Compounds in MCF-7 and MDA-MB-231 Breast Cancer Cells” (Pharmaceuticals, 2023)
Where two headings read alike, the source gives them in different places.

Key:
NCI/ADR-RES = test: NCI-60 SRB screen, ovarian cancer; format: cell-based, human; settings: 48 h; for GI50: Homo sapiens, five dose 0.01–100 µM, read-out: GI50
SNB-19 = test: NCI-60 SRB screen, CNS cancer; format: cell-based, human; settings: SNB-19, 48 h; for GI50: Homo sapiens, five dose 0.01–100 µM, read-out: GI50
MALME-3M = test: NCI-60 SRB screen, melanoma; format: cell-based, human; settings: MALME-3M, 48 h; for GI50: Homo sapiens, five dose 0.01–100 µM, read-out: GI50
K-562 = test: NCI-60 SRB screen, leukemia; format: cell-based, human; settings: for GI50: Homo sapiens, K562, 48 h, read-out: GI50
[1] = test system: MDA-MB-231 human breast cancer cells; test: Alamar Blue cell viability (antiproliferative) assay; format: cell-based; settings: read-out: IC50
UO-31 = test: NCI-60 SRB screen, renal cancer; format: cell-based, human; settings: UO-31, 48 h; for GI50: Homo sapiens, five dose 0.01–100 µM, read-out: GI50
PC-3 = test: NCI-60 SRB screen, prostate cancer; format: cell-based, human; settings: PC-3, 48 h; for GI50: Homo sapiens, five dose 0.01–100 µM, read-out: GI50
SNB-75 = test: NCI-60 SRB screen, CNS cancer; format: cell-based, human; settings: SNB-75, 48 h; for GI50: Homo sapiens, five dose 0.01–100 µM, read-out: GI50
HOP-62 = test: NCI-60 SRB screen, non-small cell lung cancer; format: cell-based, human; settings: HOP-62, 48 h; for GI50: Homo sapiens, five dose 0.01–100 µM, read-out: GI50
A498 = test: NCI-60 SRB screen, renal cancer; format: cell-based, human; settings: A498, 48 h; for GI50: Homo sapiens, five dose 0.01–100 µM, read-out: GI50
TK-10 = test: NCI-60 SRB screen, renal cancer; format: cell-based, human; settings: TK-10, 48 h; for GI50: Homo sapiens, five dose 0.01–100 µM, read-out: GI50
[2] = test system: NCI 60 human cancer cell line panel; test: NCI 60 cell line screen (SRB), panel values; settings: for IC (TGI (total growth inhibition)): read-out: Mean TGI
NCI-H460 = test: NCI-60 SRB screen, non-small cell lung cancer; format: cell-based, human; settings: NCI-H460, 48 h; for GI50: Homo sapiens, five dose 0.01–100 µM, read-out: GI50
HS 578T = test: NCI-60 SRB screen, breast cancer; format: cell-based; settings: Homo sapiens; HS 578T; five dose 0.01–100 µM, 48 h; read-out: GI50
MOLT-4 = test: NCI-60 SRB screen, leukemia; format: cell-based, human; settings: MOLT-4, 48 h; for GI50: Homo sapiens, five dose 0.01–100 µM, read-out: GI50
[3] = test system: MCF-7 human breast cancer cells; test: cells
UACC-62 = test: NCI-60 SRB screen, melanoma; format: cell-based, human; settings: UACC-62, 48 h; for GI50: Homo sapiens, five dose 0.01–100 µM, read-out: GI50
MCF-7 = test: cells; settings: Homo sapiens; for GI50: MCF7, 48 h
NCI-H552 = test: NCI-60 SRB screen, non-small cell lung cancer; format: cell-based, human; settings: 48 h; for GI50: Homo sapiens, NCI-H552, five dose 0.01–100 µM, read-out: GI50
MDA-MB-468 = test: NCI-60 SRB screen, breast cancer; format: cell-based, human; settings: MDA-MB-468, 48 h; for GI50: Homo sapiens, five dose 0.01–100 µM, read-out: GI50
EKVX = test: NCI-60 SRB screen, non-small cell lung cancer; format: cell-based, human; settings: 48 h
DU-145 = test: NCI-60 SRB screen, prostate cancer; format: cell-based, human; settings: DU-145, 48 h; for GI50: Homo sapiens, five dose 0.01–100 µM, read-out: GI50
SK-MEL-2 = test: NCI-60 SRB screen, melanoma; format: cell-based, human; settings: SK-MEL-2, 48 h; for GI50: Homo sapiens, five dose 0.01–100 µM, read-out: GI50
OVCAR-3 = test: NCI-60 SRB screen, ovarian cancer; format: cell-based, human; settings: OVCAR-3, 48 h; for GI50: Homo sapiens, five dose 0.01–100 µM, read-out: GI50
M14 = test: NCI-60 SRB screen, melanoma; format: cell-based, human; settings: M14, 48 h; for GI50: Homo sapiens, five dose 0.01–100 µM, read-out: GI50
OVCAR-4 = test: NCI-60 SRB screen, ovarian cancer; format: cell-based, human; settings: OVCAR-4, 48 h; for GI50: Homo sapiens, five dose 0.01–100 µM, read-out: GI50
OVCAR-5 = test: NCI-60 SRB screen, ovarian cancer; format: cell-based, human; settings: OVCAR-5, 48 h; for GI50: Homo sapiens, five dose 0.01–100 µM, read-out: GI50
HCT-116 = test: NCI-60 SRB screen, colon cancer; format: cell-based, human; settings: HCT-116, 48 h; for GI50: Homo sapiens, five dose 0.01–100 µM, read-out: GI50
T-47D = test: NCI-60 SRB screen, breast cancer; format: cell-based, human; settings: T-47D, 48 h; for GI50: Homo sapiens, T47D, five dose 0.01–100 µM, read-out: GI50
HCT-15 = test: NCI-60 SRB screen, colon cancer; format: cell-based, human; settings: HCT-15, 48 h; for GI50: Homo sapiens, five dose 0.01–100 µM, read-out: GI50
SK-MEL-5 = test: NCI-60 SRB screen, melanoma; format: cell-based, human; settings: SK-MEL-5, 48 h; for GI50: Homo sapiens, five dose 0.01–100 µM, read-out: GI50
NCI-H23 = test: NCI-60 SRB screen, non-small cell lung cancer; format: cell-based, human; settings: NCI-H23, 48 h; for GI50: Homo sapiens, five dose 0.01–100 µM, read-out: GI50
[4] = Homo sapiens, 60 cell, read-out: Mean LC50
[5] = MCF7, 72 h, read-out: cell viability

SMILES: C=C(C)C1C(=O)N(c2cc(OC)c(OC)c(OC)c2)C1c1ccc(OC)c(O)c1 (stereo not drawn) [9q, 4-(3-Hydroxy-4-methoxyphenyl)-1-(3,4,5-trimethoxyphenyl)-3-(prop-1-en-2-yl)azetidin-2-one]
- GI50 (NCI/ADR-RES): < 10 nM
- % Growth (NCI/ADR-RES; one dose 10 µM): -2.95%
- GI50 (SNB-19): 58.8 nM
- % Growth (SNB-19; one dose 10 µM): 37.93%
- GI50 (MALME-3M): 20500 nM
- % Growth (MALME-3M; one dose 10 µM): 63.23%
- GI50 (K-562): 35.2 nM
- % Growth (K-562; K-562, one dose 10 µM, 48 h): 2.20%
- IC50 [1]: 23.9 nM
- GI50 (UO-31): 87.8 nM
- % Growth (UO-31; one dose 10 µM): 29.39%
- GI50 (PC-3): 20.1 nM
- % Growth (PC-3; one dose 10 µM): 27.31%
- GI50 (SNB-75): 47.3 nM
- % Growth (SNB-75; one dose 10 µM): 41.90%
- % Growth (HOP-62; one dose 10 µM): 22.22%
- GI50 (HOP-62): 52.1 nM
- % Growth (A498; one dose 10 µM): -13.19%
- GI50 (A498): < 10 nM
- GI50 (TK-10): 53.4 nM
- % Growth (TK-10; one dose 10 µM): 46.63%
- CC50 ([2]; Homo sapiens, 60 cell, 9 h, read-out: LC50): > 100000 nM
- GI50 ([2]; Homo sapiens, 60 cell, breast cancer cell lines MCF-7, MDA-MB-231, HS 578T, BT-549, MDA-MB-468): 10 to 16 nM
- GI50 ([2]; Homo sapiens, 60 cell, in 48 of the panel cell lines tested): < 50 nM
- CC50 [2, 4]: 81300 nM
- IC (TGI (total growth inhibition)) ([2]; Homo sapiens, 60 cell): 32400 nM
- GI50 in words ([2]; all cell lines investigated except T-47D): sub-micromolar
- TGI ([2]; for 34 of the cell lines tested): > 100000 nM
- % Growth, Delta ([2]; one dose 10 µM, 48 h): 65.02%
- % Growth, Range ([2]; one dose 10 µM, 48 h): 126.47%
- % Growth, Mean ([2]; one dose 10 µM, 48 h, all cell lines): 13.02%
- GI50 (NCI-H460): 30 nM
- % Growth (NCI-H460; one dose 10 µM): 3.52%
- GI50 (HS 578T): 10.6 nM
- GI50 (MOLT-4): 20.2 nM
- % Growth (MOLT-4; one dose 10 µM): -15.34%
- IC50 ([3]; MCF7): 10 nM
- IC50 ([3]; MCF7, 72 h): 12 nM
- viability at 0.1 µM [3, 5]: 22%
- viability at 1 µM [3, 5]: 21%
- viability at 10 µM [3, 5]: 11%
- GI50 (UACC-62): < 10 nM
- % Growth (UACC-62; one dose 10 µM): 38.81%
- IC50 (MCF-7; MCF7): < 10 nM
- GI50 (MCF-7): < 10 nM
- CC50 (MCF-7; MCF7, read-out: LC50): > 100000 nM
- GI50 (NCI-H552): < 10 nM
- % Growth (NCI-H552; NCI-H522, one dose 10 µM): -43.45%
- GI50 (MDA-MB-468): < 10 nM
- % Growth (MDA-MB-468; one dose 10 µM): 13.36%
- % Growth (EKVX; one dose 10 µM): 68.88%
- % Growth (DU-145; one dose 10 µM): -52.00%
- GI50 (DU-145): 21.5 nM
- GI50 (SK-MEL-2): 44.6 nM
- % Growth (SK-MEL-2; one dose 10 µM): 9.55%
- GI50 (OVCAR-3): 20.7 nM
- % Growth (OVCAR-3; one dose 10 µM): -40.14%
- GI50 (M14): 17.3 nM
- % Growth (M14; one dose 10 µM): 3.41%
- GI50 (OVCAR-4): < 10 nM
- % Growth (OVCAR-4; one dose 10 µM): 25.51%
- GI50 (OVCAR-5): 49.4 nM
- % Growth (OVCAR-5; one dose 10 µM): 44.67%
- % Growth (HCT-116; one dose 10 µM): -10.74%
- GI50 (HCT-116): 14.9 nM
- GI50 (T-47D): > 100000 nM
- % Growth (T-47D; one dose 10 µM): 67.35%
- % Growth (HCT-15; one dose 10 µM): 15.23%
- GI50 (HCT-15): 29.9 nM
- GI50 (SK-MEL-5): 12.4 nM
- % Growth (SK-MEL-5; one dose 10 µM): -0.90%
- GI50 (NCI-H23): 23.7 nM
- % Growth (NCI-H23; one dose 10 µM): 14.46%

SMILES: C=CCC1C(=O)N(c2cc(OC)c(OC)c(OC)c2)C1c1ccc(OC)c(O)c1 (stereo not drawn) [10p, 4-(3-Hydroxy-4-methoxyphenyl)-1-(3,4,5-trimethoxyphenyl)-3-allylazetidin-2-one]
- GI50 (NCI/ADR-RES): 20.6 nM
- GI50 (SNB-19): 58.9 nM
- GI50 (MALME-3M): 30.6 nM
- GI50 (K-562): 43.1 nM
- IC50 [1]: 27 nM
- GI50 (UO-31): 85.8 nM
- GI50 (PC-3): 40.3 nM
- GI50 (SNB-75): 44.8 nM
- GI50 (HOP-62): 61 nM
- GI50 (A498): 17.5 nM
- GI50 (TK-10): 80.2 nM
- GI50 ([2]; Homo sapiens, 60 cell, read-out: Mean GI50, mean over all NCI 60 cell lines): < 91.2 nM
- CC50 [2, 4]: 93300 nM
- IC (TGI (total growth inhibition)) ([2]; Homo sapiens, 60 cell): 35500 nM
- GI50 ([2]; read-out: Mean GI50, mean over all NCI 60 cell lines): 61.7 nM
- GI50 (NCI-H460): 32 nM
- GI50 (HS 578T): 51.7 nM
- GI50 (MOLT-4): 40.8 nM
- IC50 ([3]; MCF7, read-out: Antiproliferative Activity IC50, MCF-7, eight concentrations 0.001–50 μM, mean ± SEM, Table 3): 31 ± 2 nM
- GI50 (UACC-62): 32 nM
- GI50 (MCF-7): 35.3 nM
- GI50 (NCI-H552): 15.1 nM
- GI50 (MDA-MB-468): 25 nM
- GI50 (EKVX; Homo sapiens, five dose 0.01–100 µM, read-out: GI50): 76.4 nM
- GI50 (DU-145): 26.6 nM
- GI50 (SK-MEL-2): 301 nM
- GI50 (OVCAR-3): 23.3 nM
- GI50 (M14): 17.6 nM
- GI50 (OVCAR-4): 39.7 nM
- GI50 (OVCAR-5): 61.8 nM
- GI50 (HCT-116): 24.9 nM
- GI50 (T-47D): 63500 nM
- GI50 (HCT-15): 36.7 nM
- GI50 (SK-MEL-5): 24.9 nM
- GI50 (NCI-H23): 30.7 nM
